Source: patent US4496591A, “Insecticidal bis-carbamate sulfides” (priority 1981, dated 1985)

Assays:
Assay type in all cases: in vivo
[1] = system: Marigold; experiment: Phytotoxicity, marigold; design: key: 0: the compounds had no visible effects on that plant species; conditions: scale 0 to 10, eight pounds per acre, approximately two weeks
Description: (§1) Several species of the novel compounds were tested for their phytotoxic effects. Two flats of each species of plants to be tested were planted 8-14 days before testing and grown at greenhouse conditions. One flat was sprayed with the chemical to be tested at the rate of eight pounds per acre while the other control flat was sprayed with solvent only. The results of such testing were recorded approximately two weeks after treatment and are reproduced in Table III below.
(§2) Numerical ratings from "0" to "10" are used to designate the degree of activity.

[2] = system: Snapbean; experiment: Phytotoxicity, snapbean; design: key: 0: the compounds had no visible effects on that plant species; conditions: scale 0 to 10, eight pounds per acre, approximately two weeks
Description: as §1, §2

[3] = system: Cucumber; experiment: Phytotoxicity, cucumber; design: key: 0: the compounds had no visible effects on that plant species; conditions: scale 0 to 10, eight pounds per acre, approximately two weeks
Description: as §1, §2

[4] = system: Sorghum; experiment: Phytotoxicity, sorghum; design: key: 0: the compounds had no visible effects on that plant species; conditions: scale 0 to 10, eight pounds per acre, approximately two weeks
Description: as §1, §2

[5] = system: flax; experiment: Phytotoxicity, flax; design: key: 0: the compounds had no visible effects on that plant species; conditions: scale 0 to 10, eight pounds per acre, approximately two weeks
Description: as §1, §2

[6] = system: southern armyworm (Spodoptera eridania, (Cram.)) larvae; experiment: Southern armyworm leaf spray bait test; design: key: A: excellent control; B: partial control; C: no control at 500 ppm; conditions: 500 parts per million, three days
Description: (§3) Suspensions of the test compounds were prepared by dissolving one gram of compound in 50 milliliters of acetone in which had been dissolved 0.1 gram (10 percent of the weight of compound) of an alkylphenoxy polyethoxyethanol surfactant, as an emulsifying or dispersing agent. The resulting solution was mixed into 150 milliliters of water to give roughly 200 milliliters of a suspension containing the compound in finely divided form. The thus-prepared stock suspension contained 0.5 percent by weight of compound. The concentrations in parts per million by weight employed in the tests described hereinbelow were obtained by appropriate dilutions of the stock suspension with water. The test procedures were as follows:
Larvae of the southern armyworm (Spodoptera eridania, (Cram.)), reared on Tendergreen bean plants at a temperature of 80±5° F. and a reative humidity of 50±5 percent, constituted the test insects.
The test compounds were formulated by diluting the stock suspension with water to give a suspension containing 500 parts of test compound per million parts of final formulation. Potted Tendergreen bean plants of standard height and age were placed on a revolving turntable and sprayed with 100-110 milliliters of test compound formulation by use of a DeVilbiss spray gun set at 40 psig air pressure. This application, which lasted 25 seconds, was sufficient to wet the plants to run-off. As a control, 100-110 milliliters of a water-acetone-emulsifier solution containing no test compound were also sprayed on infested plants. When dry, the paired leaves were separated and each one was placed in a 9 centimeter Petri dish lines with moistened filter paper. Five randomly selected larvae were introduced into each dish and the dishes were closed. The closed dishes were labeled and held at 80°-85° F. for three days. Although the larvae could easily consume the whole leaf within twenty-four hours, no more food was added. Larvae which were unable to move the length of the body, even upon stimulation by prodding, were considered dead.
(§4) In these tests the pesticidal activity of the compounds at the indicated dosage rate against aphid, Southern Armyworm, Bean Beetle and housefly was rated as follows: […]

[7] = system: house flies (Musca domestica, L.); experiment: Fly bait test; design: key: A: excellent control; B: partial control; C: no control at 500 ppm; conditions: 500 parts per million, sugar bait, twenty-four hours
Description: as §3
Four to six day old adult house flies (Musca domestica, L.), reared according to the specifications of the Chemical Specialties Manufacturing Association (Blue Book, McNair-Dorland Co., N.Y. 1954; pages 243-244, 261) under controlled conditions of 80±5° F. and 50±5 percent relative humidity, were the test insects. The flies were immobilized by anesthetizing them with carbon dioxide. Twenty-five immobilized individuals, males and females, were transferred to a cage consisting of a standard food strainer about five inches in diameter which was inverted over a wrapping-paper-covered surface. The test compounds were formulated by diluting the stock suspension with a 10 percent (by weight) sugar solution to give a suspension containing 500 parts of test compound per million parts of final formulation, by weight. Ten milliliters of the test formulation were added to a souffle cup containing a one-inch square of an absorbent cotton pad. This bait cup was introduced and centered on the blotting paper under the food strainer prior to admitting the anesthetized flies. The caged flies were allowed to feed on the bait for twenty-four hours, at a temperature of 80±5° F. and at a relative humidity of 50±5 percent.
as §4

[8] = system: Mexican bean beetle (Epilachna varivestis, Muls.) larvae; experiment: Mexican bean beetle leaf spray test; design: key: A: excellent control; B: partial control; C: no control at 500 ppm; conditions: 500 parts per million, fourth instar larvae, three days
Description: as §3
Fourth instar larvae of the Mexican bean beetle (Epilachna varivestis, Muls.), reared on Tendergreen bean plants at a temperature of 80±5° F. and 50±5° F. percent relative humdity, were the test insects.
The test compounds were formulated by diluting the stock suspension with water to give a suspension containing 500 parts of test compound per million parts of final formulation. Tendergreen bean plants of standard height and age were placed on a revolving turntable and sprayed with 100-110 milliliters of test compound formulation by use of a DeVilbiss spray gun set at 40 psig air pressure. This application, which lasted 25 seconds, was sufficient to wet the plants to run-off. As a control, 100-110 milliliters of a water-acetone-emulsifier solution containing no test compound was also sprayed on infested plants. When dry, the paired leaves were separated and each was placed in a 9 centimeter Petri dish lined with moistened filter paper. Five randomly selected larvae were introduced into each dish, and the dishes were closed. The closed dishes were labeled and held at a temperature of 80±5° F., for three days. Although the larvae could easily consume the leaf within 24 to 48 hours, no more food was added. Larvae which were unable to move the length of the body, even upon stimulation, were considered dead.
as §4

[9] = system: egg of the Southern armyworm (Spodoptera eridania (Cram.)); experiment: Southern armyworm ovicide test; design: key: A: excellent control; B: partial control; C: no control at 500 ppm; conditions: 500 parts per million, egg dip, four days
Description: as §3
The test organism was the egg of the Southern armyworm (Spodoptera eridania (Cram.)) as obtained from adults reared on Tendergreen bean plants at a temperature of 80±5° F. and a relative humidity of 50±5 percent. The eggs were laid on freezer paper (Marlon 717, Copco paper) and then cut into small sections containing one or two egg masses.
The test compounds were formulated by diluting the stock suspension with water to give a suspension containing 500 parts of test compound per million parts of final formulation. The egg masses were then dipped until they were thoroughly wet (5-10 seconds). They were then placed on a paper towel face up and were allowed to dry for 15-30 minutes. The dry eggs were placed in a 15×60 mm petri dish containing a cotton dental wick saturated with a 5 percent sodium chloride solution to maintain a high level of humidity. The closed dishes were labeled and held at a temperature of 80±5° F. for four days. Larvae that emerged from the egg, even if dead at the time of observation, were recorded as hatched.
as §4

[10] = system: root-knot nematode, Meloidogyne incognita var. acrita; experiment: Nematocide test; design: key: 1: severe galling, equal to untreated plants; 2: moderate galling; 3: light galling; 4: very light galling; 5: no galling, perfect control; conditions: 3.33 m.g. per jar, cucumber, approximately 3 weeks
Description: The test organism used was the infective migratory larvae of the root-knot nematode, Meloidogyne incognita var. acrita, reared in the greenhouse on roots of cucumber plants. Infected plants were removed from the culture, and the roots were chopped very finely. A small amount of this inoculum was added to a pint jar containing approximately 180 cc. of soil. The jars were capped and incubated for one week at room temperature. During this period eggs of the nematode were hatched, and the larval forms migrated into the soil.
Ten ml. of the test formulation were added to each of the two jars for each dosage tested. Following the addition of chemical, the jars were capped, and the contents thoroughly mixed on a ball mill for […].
The test compounds were formulated by a standard procedure of solution in acetone addition of an emulsifier, and dilution with water. Primary screening tests were conducted at 3.33 m.g. of the test compound per jar.
The jars were left capped at room temperature for a period of 48 hours, and the contents then transferred to 3 inch pots. Subsequently, the pots were seeded to cucumber as an indicator crop and placed in the greenhouse where they were cared for in the normal fashion for approximately 3 weeks.
The cucumber plants were then taken from the pots, the soil removed from the roots, and the amount of galling visually rated.
In the test for activity against nematodes activity was rated as follows: […]

[11] = system: bean aphid (Aphis fabae Scop.); experiment: Bean aphid foliage spray test; design: key: A: excellent control; B: partial control; C: no control at 500 ppm; conditions: 500 parts per million, 24 hour
Description: as §3
Adults and nymphal stages of the bean aphid (Aphis fabae Scop.) reared on potted dwarf nasturtium plants at 68°-70° F. and 50±5 percent relative humidity, constituted the test insects. For testing purposes, the number of aphids per pot were standardized to 100-150 by trimming plants containing excess aphids.
The test compounds were formulated by diluting the stock suspension with water to give a suspension containing 500 parts of test compound per million parts of final formulation.
The potted plants (one pot per compound tested) infested with 100-150 aphids, were placed on a revolving turntable and sprayed with 100-110 milliliters of test compound formulation by use of a DeVilbiss spray gun set at 40 psig. air pressure. This application, which lasted 25 seconds, was sufficient to wet the plants to run-off. As a control, 100-110 milliliters of a water-acetone-emulsifier solution containing no test compound was also sprayed on infested plants. After spraying, the pots were placed on their sides on a sheet of white standard mimeograph paper which had been previously ruled to facilitate counting. Temperature and humidity in the test room during the 24 hour holding period were 68°-70° F. and 50±5 percent, respectively. Aphids which fell onto the paper and were unable to remain standing after being uprighted were considered dead. Aphids remaining on the plants were observed closely for movement and those which were unable to move the length of the body upon stimulation by prodding were considered dead.
as §4

SMILES | Phytotoxicity rating, Marigold [1] | Phytotoxicity rating, Snapbean [2] | Phytotoxicity rating, Cucumber [3] | Phytotoxicity rating, Sorghum [4] | Phytotoxicity rating, flax [5] | Southern Armyworm, pesticidal activity rating [6] | Housefly, pesticidal activity rating [7] | Mexican Bean Beetle, pesticidal activity rating [8] | Southern Armyworm (egg), pesticidal activity rating [9] | Root-Knot Nematode, galling rating [10] | Aphids, pesticidal activity rating [11]
CSC(C)=NOC(=O)N(C)SN(C)C(=O)Oc1ccccc1C(C)=O | 0 | 0 | 0 | 0 | 0 | – | – | – | – | – | –
CSC(C)=NOC(=O)N(C)SN(C)C(=O)Oc1cccc(C(C)=O)c1 [drawing 26] | 0 | 0 | 0 | 0 | 0 | – | – | – | – | – | –
CSC(C)=NOC(=O)N(C)SN(C)C(=O)Oc1ccc(C(C)=O)cc1 [Compound 2] | – | – | – | – | – | A | A | A | A | 5 | A
COc1ccc(C(=O)c2ccccc2)c(OC(=O)N(C)SN(C)C(=O)ON=C(C)SC)c1 [Compound 10] | – | – | – | – | – | A | A | A | A | 5 | A
CSC(C)=NOC(=O)N(C)SN(C)C(=O)Oc1cccc(C(C)=O)c1 [Compound 1, S-Methyl-N-[[[N'-[[N"-[(3-acetylphenoxy)carbonyl]-N"-methylaminosulfenyl]]-N'-methylcarbamoyloxy]]]thioacetimidate] | – | – | – | – | – | A | A | A | A | 5 | A
CSC(C)=NOC(=O)N(C)SN(C)C(=O)Oc1ccccc1C=O [Compound 8] | – | – | – | – | – | A | A | A | B | 4 | A
CSC(C)=NOC(=O)N(C)SN(C)C(=O)Oc1ccccc1C=O [drawing 25] | 0 | 0 | 0 | 0 | 0 | – | – | – | – | – | –
